Source: publication PMC2693246 (ACS chemical biology, 2009)
Values after ≈ are worked out from the molar mass of the structure shown. “Also recorded” adds a separate entry of the source.

Columns and labels:
[1] = tested on: F. tularensis LVS; assay: microbe, parasite or virus in culture; type: cell-based, Francisella tularensis; conditions: for MIC90: Francisella tularensis
[2] = in vitro; conditions: African green monkey
[3] = tested on: ecFabI; conditions: cited from earlier work
[4] = tested on: F. tularensis Schu4; design: species or system mice; conditions: mouse, in vivo; for %Survival: ip, 200 mg/kg
[5] = molecular target: T1, ftuFabI (Francisella tularensis subsp. tularensis, UniProt Q5NGQ3); assay: biochemical; type: biochemical
[6] = molecular target: T1, ftuFabI; type: biochemical
[7] = molecular target: T1, ftuFabI; type: biochemical; remark: listed apart in the source

T1 sequence (Q5NGQ3 1-260): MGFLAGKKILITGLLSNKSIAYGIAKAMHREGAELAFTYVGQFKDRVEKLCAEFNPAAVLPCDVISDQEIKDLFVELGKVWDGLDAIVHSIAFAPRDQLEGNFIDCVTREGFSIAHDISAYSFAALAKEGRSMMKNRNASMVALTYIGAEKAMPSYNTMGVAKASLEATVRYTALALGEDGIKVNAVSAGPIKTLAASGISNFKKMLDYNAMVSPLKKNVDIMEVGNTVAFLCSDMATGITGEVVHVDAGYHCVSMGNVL

Structure (SMILES) | MIC90 [1] [ng/mL] | CC50 [2] [ng/mL] | Median Survival [4] [days] | efficacy in the 10-day animal model of infection [4] | %Survival [4] [%] | Ki [5] [nM] | k2 [5] [min⁻¹] | k−2 [5] [min⁻¹] | residence time [5] [min] | Type of Inhibition [6] | also measured
CNC(C)C1CCC(N)C(OC2C(N)CC(N)C(OC3OCC(C)(O)C(NC)C3O)C2O)O1 (stereo not shown) [Gentamicin, reference compound] | 4000 (≈ 8.38 µM) | – | – | – | – | – | – | – | – | – | –
Oc1cc(Cl)ccc1Oc1ccccc1 [Compound 4, 5-chloro-2-phenoxyphenol] | 1 ± 1 (≈ 0.00453 µM) | 60000 ± 14000 (≈ 272 µM) | 6.8 | demonstrated efficacy | 11 | 665 ± 70 | 0.11 ± 0.01 | 0.033 ± 0.002 | 30 ± 2 | Slow-onset | fold higher affinity for ecFabI than triclosan [3]: 7 fold; fold decrease in affinity for ftuFabI compared to triclosan [6]: 37 fold
Oc1cc(F)ccc1Oc1ccccc1 [Compound 3, 5-fluoro-2-phenoxyphenol] | 320 ± 20 (≈ 1.57 µM) | – | – | – | – | – | – | – | – | not a slow-onset inhibitor; also recorded: Rapid equilibrium | fold decrease in binding affinity compared to 4 and 7 [7]: 150 fold
[H]/N=C(/N)N[C@H]1[C@H](O)[C@@H](O)[C@H](O[C@@H]2O[C@@H](C)[C@](O)(C=O)[C@H]2O[C@@H]2O[C@@H](CO)[C@H](O)[C@@H](O)[C@@H]2NC)[C@@H](N/C(N)=N\[H])[C@@H]1O [Streptomycin, reference compound] | 2000 (≈ 3.44 µM) | – | – | – | – | – | – | – | – | – | –
Oc1cc(Cl)ccc1Oc1ccc(Cl)cc1Cl [Compound 1, triclosan, reference compound] | 0.015 (≈ 5.18e-05 µM) | 14000 ± 1000 (≈ 48.4 µM) | 7.8 | demonstrated efficacy | 22 | 407 ± 48 | 0.56 ± 0.04 | 0.025 ± 0.003 | 40 ± 3 | uncompetitive inhibitor; also recorded: Slow-onset | fold tighter binding to E:NAD+ than to E:NADH [6]: approximately 90,000 fold
Cc1ccc(Oc2ccccc2)c(O)c1 [Compound 7, 5-methyl-2-phenoxyphenol] | 160 ± 70 (≈ 0.799 µM) | – | – | – | – | – | – | – | – | slow-onset inhibitors | –
CCCc1ccc(Oc2ccccc2)c(O)c1 [Compound 9, 5-propyl-2-phenoxyphenol] | 0.18 ± 0.14 (≈ 0.000788 µM) | 62000 ± 3000 (≈ 272 µM) | 7.8 | demonstrated efficacy | 39 | 375 ± 6 | 1.66 ± 0.01 | 0.017 ± 0.002 | 59 ± 2 | slow-onset inhibitors | fold more potent (MIC90) than doxycycline [1]: > 4,000 fold; fold more potent (MIC90) than gentamicin [1]: more than 22,000 fold
C[C@H]1c2cccc(O)c2C(=O)C2=C(O)[C@]3(O)C(=O)C(C(N)=O)=C(O)[C@@H](N(C)C)[C@@H]3[C@@H](O)[C@@H]21 [Doxycycline, reference compound] | 750 ± 350 (≈ 1.69 µM) | – | – | – | – | – | – | – | – | – | –
